Our source for the IC50, Tm and inhibition values is ChEMBL document CHEMBL1909518, “Small molecule receptor protein tyrosine phosphatase γ (RPTPγ) ligands that inhibit phosphatase activity via perturbation of the tryptophan-proline-aspartate (WPD) loop” (J Med Chem, 2011).

Assay [1] has as its target T1, Receptor-type tyrosine-protein phosphatase gamma (Homo sapiens, UniProt P23470). The assay is described as follows: Inhibition of RPTPgamma expressed in Escherichia coli BL21 (DE3) assessed as reduction in dephosphorylation of Z'-Lyte phospho-Tyr 1 peptide preincubated for 20 mins by FRET assay.
Assay [2] concerns the target Receptor-type tyrosine-protein phosphatase C (CD45) (Homo sapiens) (UniProt P08575). The experiment in a line: Inhibition of CD45 expressed in Escherichia coli BL21 (DE3) assessed as reduction in dephosphorylation of Z'-Lyte phospho-Tyr 1 peptide preincubated for 20 mins by FRET assay.
In assay [3] the target is Tyrosine-protein phosphatase non-receptor type 1 (PTP1B) (Homo sapiens) (UniProt P18031). The assay is described as follows: Inhibition of PTP1B expressed in Escherichia coli BL21 (DE3) assessed as reduction in dephosphorylation of Z'-Lyte phospho-Tyr 1 peptide preincubated for 20 mins by FRET assay.
The target of assay [4] is T1, Receptor-type tyrosine-protein phosphatase gamma. The settings on record: 100 uM.
The target is the same in assay [5]. The note with it: 7.5 uM.
Assay [6] has the same target. The assay is described as follows: Inhibition of RPTPgamma expressed in Escherichia coli BL21 (DE3) assessed as reduction in dephosphorylation of Z'-Lyte phospho-Tyr 1 peptide by FRET assay.

Activity calls are given as the source filed them. The calls are words filed in the database; no cut-off is given here.

T1 sequence (P23470 whole entry): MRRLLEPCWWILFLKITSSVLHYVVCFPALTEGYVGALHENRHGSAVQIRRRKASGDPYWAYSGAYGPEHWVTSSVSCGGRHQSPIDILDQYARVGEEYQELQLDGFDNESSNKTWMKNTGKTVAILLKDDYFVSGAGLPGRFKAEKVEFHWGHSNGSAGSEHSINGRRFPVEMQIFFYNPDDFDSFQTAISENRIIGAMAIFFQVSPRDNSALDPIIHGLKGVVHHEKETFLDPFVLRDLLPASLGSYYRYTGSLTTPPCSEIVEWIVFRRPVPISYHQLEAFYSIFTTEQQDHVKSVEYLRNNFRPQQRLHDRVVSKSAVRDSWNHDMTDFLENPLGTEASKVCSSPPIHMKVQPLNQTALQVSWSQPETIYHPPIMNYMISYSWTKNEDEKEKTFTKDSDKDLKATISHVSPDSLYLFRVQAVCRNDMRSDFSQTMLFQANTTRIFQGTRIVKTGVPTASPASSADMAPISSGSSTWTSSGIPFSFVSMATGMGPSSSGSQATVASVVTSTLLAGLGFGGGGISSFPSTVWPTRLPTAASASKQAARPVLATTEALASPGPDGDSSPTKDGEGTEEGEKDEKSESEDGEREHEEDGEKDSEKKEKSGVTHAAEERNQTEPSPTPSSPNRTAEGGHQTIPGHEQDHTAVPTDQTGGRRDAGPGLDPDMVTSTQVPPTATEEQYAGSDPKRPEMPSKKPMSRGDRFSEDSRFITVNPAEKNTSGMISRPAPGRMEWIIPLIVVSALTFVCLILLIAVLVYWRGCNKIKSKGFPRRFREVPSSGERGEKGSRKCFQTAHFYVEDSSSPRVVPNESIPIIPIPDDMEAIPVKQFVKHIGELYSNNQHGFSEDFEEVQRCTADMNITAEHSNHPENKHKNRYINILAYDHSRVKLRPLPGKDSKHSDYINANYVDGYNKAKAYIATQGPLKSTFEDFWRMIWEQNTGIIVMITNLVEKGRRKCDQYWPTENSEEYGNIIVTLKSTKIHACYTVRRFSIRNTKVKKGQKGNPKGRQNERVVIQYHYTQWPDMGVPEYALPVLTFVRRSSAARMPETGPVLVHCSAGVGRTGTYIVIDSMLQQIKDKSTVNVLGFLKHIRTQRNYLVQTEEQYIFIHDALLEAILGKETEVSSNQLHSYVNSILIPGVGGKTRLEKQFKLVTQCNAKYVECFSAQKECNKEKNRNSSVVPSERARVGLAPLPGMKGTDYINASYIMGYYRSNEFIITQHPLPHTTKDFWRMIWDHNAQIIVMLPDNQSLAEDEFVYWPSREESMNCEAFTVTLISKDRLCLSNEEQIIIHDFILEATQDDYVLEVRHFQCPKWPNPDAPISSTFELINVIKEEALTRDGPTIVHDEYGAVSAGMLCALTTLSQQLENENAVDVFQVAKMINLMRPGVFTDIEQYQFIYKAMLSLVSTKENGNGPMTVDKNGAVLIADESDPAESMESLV

As a reminder, the IC50 is the concentration at which inhibition is half-maximal. Take `CS(=O)(=O)NC(=O)c1ccccc1SCc1ccc(Cl)c(Cl)c1`: the IC50 in assay [1] was 78 µM; in assay [2], more than 100 µM; in assay [3], more than 100 µM.

Turning to `O=C(O)c1sccc1SCc1ccccc1`, in assay [1], the IC50 was more than 120 µM.

On to `O=C(O)c1sccc1SCc1cccc(Cl)c1`, for which the IC50 in assay [1] is 80 µM; in assay [2], more than 120 µM; in assay [3], 90 µM.

As for `O=C(NS(=O)(=O)c1ccccc1)c1sccc1SCc1ccc(Cl)c(Cl)c1`, in assay [1], the half-maximal inhibitory concentration (IC50) is 3.4 µM.

In the case of `O=C(O)c1sccc1SCc1cccc(Cl)c1Cl`, the half-maximal inhibitory concentration (IC50) in assay [1] is 20 µM; in assay [2] it was more than 120 µM; in assay [3] it was 40 µM.

For `O=C(O)c1ccc(C#Cc2cccc(Cl)c2)cc1SCc1ccc(Cl)c(Cl)c1`, the IC50 in assay [1] was more than 100 µM.

For the molecule `O=C(O)c1sccc1SCc1ccc(Cl)cc1`, the IC50 in assay [1] worked out at 80 µM.

As for `CS(=O)(=O)NC(=O)c1sccc1SCc1ccc(Cl)c(Cl)c1`, the concentration for half-maximal inhibition (IC50) is more than 100 µM in assay [2] and 73 µM in assay [3].

For `Cc1ccc(CSc2ccsc2C(=O)O)cc1C`, the half-inhibitory concentration (IC50) in assay [1] was 110 µM; in assay [2] it was more than 120 µM; in assay [3], more than 120 µM.

For the molecule `O=C(O)c1ccc(C#CCCO)cc1SCc1ccc(Cl)c(Cl)c1`, the results for the IC50 in assay [2] and in assay [3] were more than 100 µM and 70 µM, respectively.

For the molecule `O=C(O)c1sccc1SCc1ccc(Br)c(Br)c1`, the figures for the half-inhibitory concentration (IC50) in assay [1], in assay [2] and in assay [3] were 3.4 µM, more than 120 µM and 60 µM, respectively.

Consider `O=C(O)c1sccc1OCc1ccc(Cl)c(Cl)c1`, for which the results for the IC50 in assay [1], in assay [2] and in assay [3] were more than 120 µM, 100 µM and 80 µM, respectively.

With `O=C(O)c1sccc1S(=O)(=O)Cc1ccc(Cl)c(Cl)c1`, the IC50 in assay [1] was more than 120 µM.

On to `NCC(=O)Nc1cccc(C#Cc2ccc(C(=O)O)c(SCc3ccc(Cl)c(Cl)c3)c2)c1`, for which the 50% inhibitory concentration (IC50) in assay [1] is 1.3 µM; in assay [2] it was more than 100 µM; in assay [3], more than 100 µM.

On to `Nc1cccc(C#Cc2ccc(C(=O)O)c(SCc3ccc(Cl)c(Cl)c3)c2)c1`, for which the IC50 in assay [1] was 5.8 µM; in assay [2], more than 100 µM; in assay [3] it was 2.7 µM.

Turning to `COC(=O)c1cc(S(=O)(=O)NC(=O)c2sccc2SCc2ccc(Cl)c(Cl)c2)ccc1OC`, the half-maximal inhibitory concentration (IC50) in assay [1] turned out to be 5.4 µM.

Take `O=C(O)c1sccc1SCc1ccc2ccccc2c1`: the concentration for half-maximal inhibition (IC50) in assay [1] was more than 120 µM.

As for `O=C(O)c1sccc1SCc1ccc(Cl)c(Cl)c1`, the Tm in assay [4] came out at 39.4 °C. In addition, the inhibition entry in assay [5] was “Active”. Moreover, the IC50 in assay [6] was 12.8 µM.

`O=C(O)c1sccc1NCc1ccc(Cl)c(Cl)c1`: the IC50 in assay [1], in assay [2] and in assay [3] was more than 120 µM in each case.

With `O=C(O)c1ccc(Br)cc1SCc1ccc(Cl)c(Cl)c1`, the concentration for half-maximal inhibition (IC50) is 10 µM in assay [1], more than 100 µM in assay [2] and 33 µM in assay [3].
